In experiment [1] the target is T1, recombinant human pancreatic GLK (Homo sapiens, UniProt P35557).
T1 construct: 6-His (N); made in house; host or cells: E. coli BL21
T1 sequence (P35557 1-465): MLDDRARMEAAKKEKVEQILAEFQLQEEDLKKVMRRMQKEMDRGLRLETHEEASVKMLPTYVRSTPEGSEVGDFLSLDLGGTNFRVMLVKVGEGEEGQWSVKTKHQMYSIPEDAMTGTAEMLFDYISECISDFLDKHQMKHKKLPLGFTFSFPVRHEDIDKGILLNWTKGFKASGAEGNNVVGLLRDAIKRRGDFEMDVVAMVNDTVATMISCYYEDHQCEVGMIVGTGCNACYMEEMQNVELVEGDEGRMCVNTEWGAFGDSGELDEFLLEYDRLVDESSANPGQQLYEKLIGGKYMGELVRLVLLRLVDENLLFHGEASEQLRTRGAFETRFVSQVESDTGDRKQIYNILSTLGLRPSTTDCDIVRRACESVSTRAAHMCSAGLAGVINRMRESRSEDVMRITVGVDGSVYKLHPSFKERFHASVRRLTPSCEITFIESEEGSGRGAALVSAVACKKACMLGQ
Put plainly: GKH1 variant of GLK enzymatic activity assay (manual bench-top rate assay). Type of experiment: biochemical. Conditions: activation of GLK; 60 nmol/l GLK; rate over 5 minute window; no GLKRP. The procedure: (§1) Enzymatic activity of recombinant human pancreatic GLK may be measured by incubating GLK, ATP and glucose. The rate of product formation may be determined by coupling the assay to a G-6-P dehydrogenase, NADP/NADPH system and measuring the linear increase with time of optical density at 340 nm (Brocklehurst et al (Diabetes 2004, 53, 535-541). Activation of GLK by compounds can be assessed using this assay in the presence or absence of GLKRP as described in Brocklehurst et al (Diabetes 2004, 53, 535-541).
(§2) One or both of two variants of this assay, GKH1 and GKH4, were used to test the compounds of the invention. The GKH1 assay is a manual, bench-top rate assay using 60 nmol/l of recombinant human pancreatic GLK. The GLK activity rate is measured over a 5 minute window using a Multiskan Ascent spectrophotometer. The GKH4 assay is an automated end-point assay using 10 nmol/l of recombinant human pancreatic GLK. The GLK activity is measured at 10 minutes after the initiation of the assay on a Perkin Elmer Envision spectrophotometer.

The target of experiment [2] is T1, recombinant human pancreatic GLK. The experiment can be described thus: GKH4 variant of GLK enzymatic activity assay (automated end-point assay). The class given is biochemical. Conditions: activation of GLK; 10 nmol/l GLK; end-point at 10 minutes; no GLKRP. The procedure: as §1, §2

Drawing on US7902200B2, “Chemical compounds” (AstraZeneca AB, priority 2006, dated 2011), this text covers EC50 for twelve compounds.

For the compound `Cc1cnc(NC(=O)c2cc(Oc3ccc(C(=O)N4CCC4)nc3)cc(O[C@H]3CCN(C)C3=O)c2)cn1` [Example 1, 3-[6-(Azetidine-1-carbonyl)pyridin-3-yl]oxy-5-[(3S)-1-methyl-2-oxo-pyrrolidin-3-yl]oxy-N-(5-methylpyrazin-2-yl)benzamide], the EC50 came out at 90 nM in experiment [1] and 300 nM in experiment [2].

Turning to `Cc1cnc(NC(=O)c2cc(Oc3ccc4c(c3)OCCN(C)S4(=O)=O)cc(O[C@H]3CCN(C)C3=O)c2)cn1` [Example 11, 3-[(5-methyl-6,6-dioxo-2-oxa-6-λ^6-thia-5-azabicyclo[5.4.0]undeca-8,10,12-trien-10-yl)oxy]-5-(1-methyl-2-oxo-pyrrolidin-3-yl)oxy-N-(5-methylpyrazin-2-yl)benzamide], the results for the EC50 in experiment [1] and in experiment [2] were 140 nM and 310 nM, respectively.

Take `CN1CC[C@H](Oc2cc(Oc3ccc(C(=O)N4CCC4)nc3)cc(C(=O)Nc3cnccn3)c2)C1=O` [Example 12, 3-[6-(Azetidine-1-carbonyl)pyridin-3-yl]oxy-5-[(3S)-1-methyl-2-oxo-pyrrolidin-3-yl]oxy-N-pyrazin-2-yl-benzamide]: the EC50 came to 300 nM in experiment [1] and 430 nM in experiment [2].

With `CN1CC[C@H](Oc2cc(Oc3ccc(C(=O)N4CCC4)nc3)cc(C(=O)Nc3ccccn3)c2)C1=O` [Example 13, 3-[6-(Azetidine-1-carbonyl)pyridin-3-yl]oxy-5-[(3S)-1-methyl-2-oxo-pyrrolidin-3-yl]oxy-N-pyridin-2-yl-benzamide], the figures for the EC50 in experiment [1] and in experiment [2] were 430 nM and 170 nM, respectively.

Regarding `Cc1cnc(NC(=O)c2cc(Oc3ccc4c(c3)OCN(C)C4=O)cc(O[C@H]3CCN(C)C3=O)c2)cn1` [Example 15, 3-[(4-Methyl-5-oxo-2-oxa-4-azabicyclo[4.4.0]deca-6,8,10-trien-9-yl)oxy]-5-(1-methyl-2-oxo-pyrrolidin-3-yl)oxy-N-(5-methylpyrazin-2-yl)benzamide], the EC50 was found to be 100 nM in experiment [1] and 350 nM in experiment [2].

As for `Cc1cnc(NC(=O)c2cc(Oc3ccc(C(=O)N4CCC4)nc3)cc(O[C@@H]3CCN(C4CC4)C3=O)c2)cn1` [Example 18, 3-[6-(Azetidine-1-carbonyl)pyridin-3-yl]oxy-5-[(3R)-1-cyclopropyl-2-oxo-pyrrolidin-3-yl]oxy-N-(5-methylpyrazin-2-yl)benzamide], the concentration for a half-maximal effect (EC50) in experiment [1] was 3340 nM; in experiment [2] it was 7230 nM.

`Cc1cnc(NC(=O)c2cc(Oc3ccc(C(=O)N4CCC4)nc3)cc(O[C@@H]3CCN(C4CCC4)C3=O)c2)cn1` [Example 20, 3-[6-(Azetidine-1-carbonyl)pyridin-3-yl]oxy-5-[(3R)-1-cyclobutyl-2-oxo-pyrrolidin-3-yl]oxy-N-(5-methylpyrazin-2-yl)benzamide]: the results for the EC50 in experiment [1] and in experiment [2] were 420 nM and 900 nM, respectively.

With `Cc1cnc(NC(=O)c2cc(Oc3ccc(C(=O)N4CCC4)nc3)cc(O[C@H]3CCN(C4CCC4)C3=O)c2)cn1` [Example 21, 3-[6-(Azetidine-1-carbonyl)pyridin-3-yl]oxy-5-[(3S)-1-cyclobutyl-2-oxo-pyrrolidin-3-yl]oxy-N-(5-methylpyrazin-2-yl)benzamide], the EC50 in experiment [1] was found to be 210 nM; in experiment [2], 1110 nM.

With `CCN1CC[C@@H](Oc2cc(Oc3ccc(C(=O)N4CCC4)nc3)cc(C(=O)Nc3cnc(C)cn3)c2)C1=O` [Example 22, -[6-(Azetidine-1-carbonyl)pyridin-3-yl]oxy-5-[(3R)-1-ethyl-2-oxo-pyrrolidin-3-yl]oxy-N-(5-methylpyrazin-2-yl)benzamide], the EC50 in experiment [1] turned out to be 2370 nM; in experiment [2], 6610 nM.

Take `CCN1CC[C@H](Oc2cc(Oc3ccc(C(=O)N4CCC4)nc3)cc(C(=O)Nc3cnc(C)cn3)c2)C1=O` [Example 23, 3-[6-(Azetidine-1-carbonyl)pyridin-3-yl]oxy-5-[(3S)-1-ethyl-2-oxo-pyrrolidin-3-yl]oxy-N-(5-methylpyrazin-2-yl)benzamide]: the results for the 50% effective concentration (EC50) in experiment [1] and in experiment [2] were 50 nM and 220 nM, respectively.

Regarding `Cc1cnc(NC(=O)c2cc(Oc3cnc(C(=O)N(C)C)cn3)cc(O[C@H]3CCN(C)C3=O)c2)cn1` [Example 24, N,N-Dimethyl-5-[3-[(3S)-1-methyl-2-oxo-pyrrolidin-3-yl]oxy-5-[(5-methylpyrazin-2-yl)carbamoyl]phenoxy]pyrazine-2-carboxamide], the results for the 50% effective concentration (EC50) in experiment [1] and in experiment [2] were 150 nM and 570 nM, respectively.

`CN1CC[C@H](Oc2cc(Oc3ccc4c(c3)OCCCS4(=O)=O)cc(C(=O)Nc3cc[nH]n3)c2)C1=O` [Example 25, 3-[(2,2-Dioxo-6-oxa-2-λ^6-thiabicyclo[5.4.0]undeca-7,9,11-trien-9-yl)oxy]-5-[(3S)-1-methyl-2-oxo-pyrrolidin-3-yl]oxy-N-(1H-pyrazol-3-yl)benzamide]: the values for the EC50 in experiment [1] and in experiment [2] were 30 nM and 40 nM, respectively.

As a reminder, the EC50 is the concentration giving half of the maximal effect.
